In patent US20240148821A1, “PHARMACEUTICAL USE OF CYCLIC PEPTIDE COMPOUND” (CHUGAI SEIYAKU KABUSHIKI KAISHA, priority 2021, published 2024):
Numbered stars: 1 amine (or outer) side, 2 acyl side, 3 side chain; on linkers, the order of the positions; unused ones are H or OH. Bridge positions count the residues as written; N and C are the ends. Square brackets hold non-standard residues; d marks the D form. Peptide text beside a SMILES is read from it. * marks the point of attachment. hPhe(3,5-F2-4-CF3) = N[C@@H](CCc1cc(F)c(C(F)(F)F)c(F)c1)C(=O)O; hPhe(3-Cl-4-CF3) = N[C@@H](CCc1ccc(C(F)(F)F)c(Cl)c1)C(=O)O; hPhe(3-F,4-CF3) = N[C@@H](CCc1ccc(C(F)(F)F)c(F)c1)C(=O)O; NMePhe(4-CF3) = CN[C@@H](Cc1ccc(C(F)(F)F)cc1)C(=O)O; NMePhe(4-Cl) = CN[C@@H](Cc1ccc(Cl)cc1)C(=O)O; NMePhe(4-Me) = CN[C@@H](Cc1ccc(C)cc1)C(=O)O; NMePhe(2-Cl) = CN[C@@H](Cc1ccccc1Cl)C(=O)O; NMedβ3hAla = C[C@H](CC(=O)[*:2])N(C)[*:1]; NMeGly(cPent) = CN[C@H](C(=O)O)C1CCCC1; NMeCha = CN[C@@H](CC1CCCCC1)C(=O)O; NMehLeu = CN[C@@H](CCC(C)C)C(=O)O; Ala(cPr) = N[C@@H](CC1CC1)C(=O)O; Hyp = O=C(O)[C@@H]1C[C@@H](O)CN1; NMeAhp(2) = CCCCC[C@H](NC)C(=O)O; NMeI = CC[C@H](C)[C@H](NC)C(=O)O; NMeD = CN[C@@H](CC(=O)O)C(=O)O; NMeL = CN[C@@H](CC(C)C)C(=O)O; NMeV = CN[C@H](C(=O)O)C(C)C; NMeS = CN[C@@H](CO)C(=O)O; Morpholide = C1CN(*)CCO1; NMeA = CN[C@@H](C)C(=O)O; NMeAib = CNC(C)(C)C(=O)O; Piperidide = C1CCN(*)CC1; Ac5c = NC1(C(=O)O)CCCC1; Aze = O=C(O)[C@@H]1CCN1; Sar = CNCC(=O)O; Propyl = CCC*

Experiments:
[1] = target: protein-protein interaction between Kras and SOS1 (biotin-tagged human Kras loaded with GDP, His-tagged human SOS1) (Homo sapiens (Human), UniProt P01116, G12D); assay: Protein-protein interaction inhibition between Kras and SOS1 (KrasG12D-SOS PPI) using AlphaScreen; type: biochemical; settings: AlphaScreen; biotin-tagged human Kras loaded with GDP, His-tagged human SOS1; read-out: KRAS G12D-SOS PPI IC50;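 also: kras produced in E. coli, Ni-coupled donor beads and streptavidin acceptor beads, excitation 680 nm with emission detected at 520–620 nm via singlet oxygen transfer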
[2] = test system: Human pancreatic cancer cell line AsPC-1 (G12D mutation Kras); assay: AsPC-1 cell growth inhibition (AsPC-1 CGI); type: cell-based; settings: read-out: AsPC-1 cell growth inhibition, 50% growth inhibitory concentration (IC50 value); 96 hours, CellTiter-Glo, values classified in ranges
Protocol: Test compounds were serially dilated with dimethyl sulfoxide, and 200 nL was then dispensed to a U-bottom 96-well plate using Labcyte Echo. […] The cell suspension was dispensed to a. plate containing a test compound at 100 μL per well and incubated at 37° C. in a 5% carbon dioxide gas incubator. 96 hours later, 80 μL of CellTiter-Glo (Promega) was added to each well and fluorescence was measured.

Compound	IC50 [1] [nM]	IC50 [2] [nM]
CC[C@H](C)[C@@H]1NC(=O)[C@H](CCC(C)C)N(C)C(=O)C[C@@H](C(=O)N(C)C)N(C)C(=O)[C@H]([C@@H](C)CC)N(C)C(=O)C2(CCCC2)NC(=O)[C@@H]2CCCN2C(=O)[C@H](CCc2ccc(C(F)(F)F)c(Cl)c2)NC(=O)CN(C)C(=O)[C@H](Cc2ccc(C)cc2)N(C)C(=O)[C@@H]2CCN2C(=O)[C@H](C)NC1=O [Compound 308] ([NMehLeu]IA[Aze][NMePhe(4-Me)][Sar][hPhe(3-Cl-4-CF3)]P[Ac5c][NMeI][NMeD]-NMe2; lactam N-11)	0.93	≤ 20
CC[C@H](C)[C@@H]1NC(=O)[C@H](CC(C)C)N(C)C(=O)C[C@@H](C(=O)N(C)C)N(C)C(=O)[C@H](C2CCCC2)N(C)C(=O)[C@H](C)NC(=O)[C@@H]2CCCN2C(=O)[C@H](CCc2ccc(C(F)(F)F)c(Cl)c2)NC(=O)CN(C)C(=O)[C@H](CC2CCCCC2)N(C)C(=O)[C@@H]2CCN2C(=O)[C@H](C)N(C)C1=O [Compound 314] ([NMeL]I[NMeA][Aze][NMeCha][Sar][hPhe(3-Cl-4-CF3)]PA[NMeGly(cPent)][NMeD]-NMe2; lactam N-11)	2.6	> 500
CCCOC[C@H]1C(=O)N(C)CC(=O)N[C@@H](CCc2ccc(C(F)(F)F)c(F)c2)C(=O)N2CCC[C@H]2C(=O)NC2(CCCC2)C(=O)N(C)[C@@H]([C@@H](C)CC)C(=O)N(C)[C@H](C(=O)N(C)C)CC(=O)N(C)[C@@H](CC(C)C)C(=O)N[C@@H]([C@@H](C)CC)C(=O)N(C)[C@@H](C)C(=O)N2CC[C@H]2C(=O)N1C [Compound 316] ([NMeL]I[NMeA][Aze][NMeS](Propyl)[Sar][hPhe(3-F,4-CF3)]P[Ac5c][NMeI][NMeD]-NMe2; lactam N-11)	3.3	≤ 20
CC[C@H](C)[C@@H]1NC(=O)[C@H](C)N(C)C(=O)C[C@@H](C(=O)N(C)C)N(C)C(=O)[C@H](C(C)C)N(C)C(=O)C2(CCCC2)NC(=O)[C@H](Cc2ccccc2Cl)N(C)C(=O)[C@H](CCc2ccc(C(F)(F)F)c(Cl)c2)NC(=O)CN(C)C(=O)[C@H](CC2CCCCC2)N(C)C(=O)CN(C)C(=O)CN(C)C1=O [Compound 317] ([NMeA]I[Sar][Sar][NMeCha][Sar][hPhe(3-Cl-4-CF3)][NMePhe(2-Cl)][Ac5c][NMeV][NMeD]-NMe2; lactam N-11)	30	> 500
CC[C@H](C)[C@@H]1NC(=O)[C@H](CC(C)C)N(C)C(=O)C[C@@H](C(=O)N2CCCCC2)N(C)C(=O)[C@H](C(C)C)N(C)C(=O)C2(CCCC2)NC(=O)[C@@H]2CCCN2C(=O)[C@H](CCc2ccc(C(F)(F)F)c(Cl)c2)NC(=O)CN(C)C(=O)[C@H](CC2CCCCC2)N(C)C(=O)[C@@H]2CCN2C(=O)[C@@H]2CCN2C1=O [Compound 318] ([NMeL]I[Aze][Aze][NMeCha][Sar][hPhe(3-Cl-4-CF3)]P[Ac5c][NMeV][NMeD]-Piperidide; lactam N-11)	19	> 500
CC[C@H](C)[C@@H]1NC(=O)[C@H](CC(C)C)N(C)C(=O)C[C@@H](C)N(C)C(=O)[C@H](CC(C)C)NC(=O)C(C)(C)N(C)C(=O)[C@H]([C@@H](C)CC)NC(=O)[C@H](CCc2ccc(C(F)(F)F)c(F)c2)NC(=O)CN(C)C(=O)[C@H](Cc2ccc(Cl)cc2)N(C)C(=O)CN(C)C(=O)CN(C)C1=O [Compound 332] (cyclo(I[NMeAib]L[NMedβ3hAla][NMeL]I[Sar][Sar][NMePhe(4-Cl)][Sar][hPhe(3-F,4-CF3)]))	210	> 500
CC[C@H](C)[C@@H]1NC(=O)[C@H](CC(C)C)N(C)C(=O)C[C@@H](C(=O)N(C)C)N(C)C(=O)[C@H](C2CCCC2)N(C)C(=O)C2(CCCC2)NC(=O)[C@@H]2CCCN2C(=O)[C@H](CCc2ccc(C(F)(F)F)c(F)c2)NC(=O)CN(C)C(=O)[C@H](CC2CCCCC2)N(C)C(=O)[C@@H]2CCN2C(=O)[C@H](C)N(C)C1=O [Compound 334] ([NMeL]I[NMeA][Aze][NMeCha][Sar][hPhe(3-F,4-CF3)]P[Ac5c][NMeGly(cPent)][NMeD]-NMe2; lactam N-11)	0.5	≤ 20
CCCCC[C@H]1C(=O)N[C@@H]([C@@H](C)CC)C(=O)N[C@@H](C)C(=O)N2CC[C@H]2C(=O)N(C)[C@@H](Cc2ccc(C)cc2)C(=O)N(C)CC(=O)N[C@@H](CCc2ccc(C(F)(F)F)c(Cl)c2)C(=O)N2CCC[C@H]2C(=O)NC2(CCCC2)C(=O)N(C)[C@@H]([C@@H](C)CC)C(=O)N(C)[C@H](C(=O)N(C)C)CC(=O)N1C [Compound 342] ([NMeAhp(2)]IA[Aze][NMePhe(4-Me)][Sar][hPhe(3-Cl-4-CF3)]P[Ac5c][NMeI][NMeD]-NMe2; lactam N-11)	0.95	≤ 20
CCCCC[C@H]1C(=O)N[C@@H]([C@@H](C)CC)C(=O)N(C)[C@@H](C)C(=O)N2CC[C@H]2C(=O)N(C)[C@@H](C2CCCC2)C(=O)N(C)CC(=O)N[C@@H](CCc2ccc(C(F)(F)F)c(Cl)c2)C(=O)N2CCC[C@H]2C(=O)NC2(CCCC2)C(=O)N(C)[C@@H](C2CCCC2)C(=O)N(C)[C@H](C(=O)N2CCOCC2)CC(=O)N1C [Compound 343] ([NMeAhp(2)]I[NMeA][Aze][NMeGly(cPent)][Sar][hPhe(3-Cl-4-CF3)]P[Ac5c][NMeGly(cPent)][NMeD]-Morpholide; lactam N-11)	0.87	≤ 20
CCO[C@@H]1C[C@H]2C(=O)NC3(CCCC3)C(=O)N(C)[C@@H](C3CCCC3)C(=O)N(C)[C@H](C)CC(=O)N(C)[C@@H](CC(C)C)C(=O)N[C@@H]([C@@H](C)CC)C(=O)N(C)[C@@H](C)C(=O)N3CC[C@H]3C(=O)N(C)[C@@H](Cc3ccc(C(F)(F)F)cc3)C(=O)N(C)CC(=O)N[C@@H](CCc3cc(F)c(C(F)(F)F)c(F)c3)C(=O)N2C1 [Compound 344] (cyclo([Ac5c][NMeGly(cPent)][NMedβ3hAla][NMeL]I[NMeA][Aze][NMePhe(4-CF3)][Sar][hPhe(3,5-F2-4-CF3)][Hyp](Et)))	0.83	≤ 20
CC[C@H](C)[C@@H]1NC(=O)[C@H](C)N(C)C(=O)C[C@@H](C(=O)N2CCCCC2)N(C)C(=O)[C@H](C(C)C)N(C)C(=O)C2(CCCC2)NC(=O)[C@H](Cc2ccc(C)cc2)N(C)C(=O)[C@H](CCc2ccc(C(F)(F)F)c(Cl)c2)NC(=O)CN(C)C(=O)[C@H](CC2CCCCC2)N(C)C(=O)CN(C)C(=O)CN(C)C1=O [Compound 346] ([NMeA]I[Sar][Sar][NMeCha][Sar][hPhe(3-Cl-4-CF3)][NMePhe(4-Me)][Ac5c][NMeV][NMeD]-Piperidide; lactam N-11)	11	> 500
CC(C)C[C@H]1C(=O)N[C@@H](CC2CC2)C(=O)N(C)[C@@H](C)C(=O)N2CC[C@H]2C(=O)N(C)[C@@H](CC2CCCCC2)C(=O)N(C)CC(=O)N[C@@H](CCc2ccc(C(F)(F)F)c(Cl)c2)C(=O)N2CCC[C@H]2C(=O)NC2(CCCC2)C(=O)N(C)[C@@H](C(C)C)C(=O)N(C)[C@H](C(=O)N2CCCCC2)CC(=O)N1C [Compound 358] ([NMeL][Ala(cPr)][NMeA][Aze][NMeCha][Sar][hPhe(3-Cl-4-CF3)]P[Ac5c][NMeV][NMeD]-Piperidide; lactam N-11)	33	> 500
CCO[C@@H]1C[C@H]2C(=O)NC3(CCCC3)C(=O)N(C)[C@@H]([C@@H](C)CC)C(=O)N(C)[C@H](C)CC(=O)N(C)[C@@H](CC(C)C)C(=O)N[C@@H]([C@@H](C)CC)C(=O)N(C)[C@@H](C)C(=O)N3CC[C@H]3C(=O)N(C)[C@@H](Cc3ccc(C(F)(F)F)cc3)C(=O)N(C)CC(=O)N[C@@H](CCc3cc(F)c(C(F)(F)F)c(F)c3)C(=O)N2C1 [Compound 362] (cyclo([Ac5c][NMeI][NMedβ3hAla][NMeL]I[NMeA][Aze][NMePhe(4-CF3)][Sar][hPhe(3,5-F2-4-CF3)][Hyp](Et)))	0.66	≤ 20
